Experimental data: patent publication US20070224301A1, “Compounds from an extract of Artemisia and methods for treating disorders” (priority 2006, published 2007)

What was measured:
[1] = target: T1, PTP-1B (Homo sapiens, UniProt P18031); assay: PTP-1B activity by PNPP hydrolysis after immunoprecipitation from treated skeletal muscle cells; type: cell-based; details: 20 μg/ml of media; for PTP-1B inhibitory activity (decrease of PTP-1B activity): primary skeletal muscle culture from subjects with type 2 diabetes, 16 hours
T1 construct: Cell lysate was prepared and PTP-1B was immunoprecipitated with specific antibody; endogenous in cells; host or cells: primary skeletal muscle cell culture (subjects with type 2 diabetes)
T1 sequence (P18031 1-435): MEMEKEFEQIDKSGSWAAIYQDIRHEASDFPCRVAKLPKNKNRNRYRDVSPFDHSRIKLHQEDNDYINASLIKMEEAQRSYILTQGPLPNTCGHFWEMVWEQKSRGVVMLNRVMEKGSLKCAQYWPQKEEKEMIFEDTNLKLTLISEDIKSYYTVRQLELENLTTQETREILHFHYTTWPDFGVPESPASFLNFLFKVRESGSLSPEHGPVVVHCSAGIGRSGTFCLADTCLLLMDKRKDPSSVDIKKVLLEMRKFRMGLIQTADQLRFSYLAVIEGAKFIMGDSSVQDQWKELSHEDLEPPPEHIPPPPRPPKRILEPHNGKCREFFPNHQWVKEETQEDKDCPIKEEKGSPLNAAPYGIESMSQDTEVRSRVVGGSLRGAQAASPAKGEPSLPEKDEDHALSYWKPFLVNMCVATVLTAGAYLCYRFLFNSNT
Method: The activity of PTP-1B was assayed by hydrolysis of p-nitrophenol phosphate (PNPP). Skeletal muscle cells were incubated overnight (16 hours) with test substance (extract, fractions or pure compounds) at 20 μg/ml of media. Cell lysate was prepared and PTP-1B was immunoprecipitated with specific antibody (Upstate Biotechnology, Lake Placid, N.Y.). The immunoprecipitate was incubated in Phosphatase Reaction Buffer (20 mmol/L HEPES, pH 7.4, 150 mmol/L NaCl, 5 mM dithiothreitol, 1 mmol/L PNPP) for 20 minutes at 37° C. The reaction was stopped with 0.2 mol/L NaOH, and the absorbance at 410 nm was measured. The reactions were run in triplicate (Moeslein et al., The CLK family kinases, CLK1 and CLK2, phosphorylate and activate the tyrosine phosphatase, PTP-1B. J Biol Chem, 274:26697-26704 (1999)).

[2] = target: T2, human recombinant ALR2 enzyme (Homo sapiens, UniProt P15121); assay: ALR2 enzyme assay (decrease in NADPH absorbance at 340 nm); type: biochemical; details: for ALR2 inhibitory activity (in words, compared with quercitrin): 3.75 μg/ml where stated
T2 construct: purchased Wako Chemicals USA Inc
Method: Human recombinant ALR2 enzyme was purchased from Wako Chemicals USA Inc. Enzyme activity was measured at each step of purification of the extract, by monitoring the decrease in NADPH absorbance at a wavelength of 340 nm (Nishimura et al., Purification and characterization of recombinant aldose reducatse expressed in baculovirus system. Biochim. Biophys. acta. pp. 1078-1171 (1991)), using a spectrophotometer. One hundred micro liters of the reaction mixture contained 100 mM sodium phosphate buffer (pH 6.2), 0.15 mM NADPH, 10 mM DL-Glyceraldehyde and 1 mU of human recombinant ALR2 enzyme. The samples were prepared in 10% DMSO and the final concentration of the samples or the positive control quercitrin was 3.75 μg/ml. The reaction was initiated by adding the enzyme and the change in NADPH absorbance was monitored over seven minutes.

[3] = tested on: PTP-1B mRNA; assay: Quantitative real time PCR for PTP-1B gene expression; type: cell-based; details: skeletal muscle cells, 20 μg/ml of media
Method: Cells were incubated overnight (16 hours) with test substance (extract, fractions or pure compounds) at 20 μg/ml of media and harvested from the culture treatments at the designated time points. After extraction and quantification of RNA, quantitative real time PCR (qPCR) analysis was carried out using Taqman® one-step RT-PCR Master Mix (Applied Biosystems, Branchburg, N.J.). 20 ng of total RNA were added per 50 μl reaction with sequence-specific primers (200 nM) and Taqman® probes (200 nM) as indicated here, PTP-1B probe; 5′FAM d(AGTGATGGAGAAAGGTT)BHQ-1 3′. PTP-1B forward primer; 5′ d([…])3′ and PTP-1B reverse primer; 5′ d([…])3′. Primers and probes were designed by and purchased from Applied Biosystems. qPCR assays were carried out in triplicate on an ABI Prism 7700 sequence detection system. […] The threshold was set above the non-template control background and within the linear phase of target gene amplification to calculate the cycle number at which the transcript was detected (denoted CT). Gene expression values were calculated based on the standard curve of each target gene (RNA of control cells with two-fold serial dilutions from 200 ng to 3.125 ng) and normalized by the reference housekeeping gene β-Actin (1). Results were expressed as percentage change of control (Applied Biosystems (2001) Applied Biosystems User Bulletin Number 2, Foster City, Calif.).

[4] = tested on: PEPCK gene expression; assay: PEPCK gene inhibition assay (Dex/cAMP-induced, qPCR) in H4IIE hepatoma cells; type: cell-based, rat; details: 25 μg/ml
Method: H4IIE hepatoma cells (ATCC CRL-1600) were plated in 24-well tissue culture plates (Greiner Bio One) and were grown to confluence in Dulbecco's modified Eagle's medium (DMEM) containing 2.5% (v/v) newborn calf serum and 2.5% (v/v) fetal calf serum. Cells were treated for 8 hours with 500 nM dexamethasone and 0.1 mM cAMP (Dex/cAMP, both Sigma) to induce PEPCK gene expression and different concentrations or volumes of each of the tested compounds, plant extract or […] of Insulin. The fractions were tested at 50 μg/ml of media and the compounds were tested at the doses of 2.5 μg/ml, 5 μg/ml and 10 μg/ml and 25 μg/ml. Three wells were allocated for each treatment as well as for a negative control (untreated cells).
Total RNA was extracted from H4IIE rat hepatoma cells using Trizol reagent (Invitrogen Inc.) following the manufacturer instructions. RNA was quantified spectro-photo-metrically by absorption measurements at 260 nm and 280 nm using the NanoDrop system (NanoDrop Technologies Inc. Delware, USA). Quality of RNA was assessed by separation in gel-electrophoresis. […]
The synthesized cDNAs were diluted 4-fold. […] The other components of the PCR reactions were 0.5 μl of 6 μM gene specific primers (synthesized by IDT Inc. USA), 12.5 μl of Brilliant SYBR green PCR master mix (2×) (Stratagene, La Jolla, Calif.) containing green jump-start Taq ready mix. […]

COc1ccc(C(=O)CCc2ccc(O)cc2)c(O)c1 [Compound 5, 2′,4-dihydroxy-4′-methoxydihydrochalcone]
PTP-1B inhibitory activity (decrease of PTP-1B activity) [1]: ≤ 36%

O=C(/C=C/c1ccc(O)c(O)c1)OC1CC(O)(C(=O)O)CC(O)C1OC(=O)/C=C/c1ccc(O)c(O)c1 (single isomer, unassigned) [Sub-fraction 5-7, 4,5-Di-O-caffeoylquinic acid]
greater inhibition of ALR2 than that caused by quercitrin ([2]; 3.75 μg/ml): 19% | inhibition at 3.75 µg/mL ([2]; 3.75 μg/ml): 78%

COc1ccc(CCC(=O)c2ccc(O)cc2O)cc1 (single isomer, unassigned) [F7-9/P3, 2′,4′-dihydroxy-4-methoxydihydrochalcone]
inhibition at 3.75 µg/mL ([2]; 3.75 μg/ml): 58.2%

O=C(CCc1ccc(O)cc1)c1ccc(O)cc1O [Compound 2, Davidigenin]
ALR2 inhibitory activity (in words, compared with quercitrin) [2]: shows ALR2 inhibition activity

O=C(/C=C/c1ccc(O)c(O)c1)OC1CC(O)(C(=O)O)CC(O)C1OC(=O)/C=C/c1ccc(O)c(O)c1 (stereo not shown) [Compound 1, 4,5-Di-O-caffeoylquinic acid]
ALR2 inhibitory activity (in words, compared with quercitrin) [2]: highest inhibitory activity

COc1cc(O)c2c(c1)O[C@H](c1ccc(O)cc1)CC2=O [Compound 6, Sakuranetin]
PTP-1B inhibitory activity (decrease of PTP-1B activity) [1]: ≤ 50% | PTP-1B inhibitory activity (in words) ([1]; skeletal muscle cells): decrease PTP-1B activity

COc1ccc(CCC(=O)c2ccc(O)cc2O)cc1 [Compound 4, 2′,4′-dihydroxy-4-methoxydihydrochalcone]
reduction of PTP-1B mRNA expression [3]: 29% | repression of dexamethazone/cAMP-induced PEPCK gene expression [4]: more than 50% | repression of dexamethazone/cAMP-induced PEPCK gene expression ([4]; listed as DMDC): more than 50% | PTP-1B inhibitory activity (decrease of PTP-1B activity) [1]: ≤ 26%

C[C@@H]1O[C@@H](Oc2c(-c3ccc(O)c(O)c3)oc3cc(O)cc(O)c3c2=O)[C@H](O)[C@H](O)[C@H]1O [quercitrin, reference compound]
inhibition at 3.75 µg/mL ([2]; 3.75 μg/ml): 54%
